# Measurements reported in patent publication US20250171459A1, “2-METHYL-4',5'-DIHYDROSPIRO[PIPERIDINE-4,7'-THIENO[2,3-C]PYRAN] DERIVATIVES AS INHIBITORS OF APOL1 AND METHODS OF USING SAME” (Vertex Pharmaceuticals Incorporated, priority 2022, published 2025).
# Biological target: T1, APOL1 (Homo sapiens, UniProt O14791)
# T1 sequence (O14791 1-398 S342G/I384M): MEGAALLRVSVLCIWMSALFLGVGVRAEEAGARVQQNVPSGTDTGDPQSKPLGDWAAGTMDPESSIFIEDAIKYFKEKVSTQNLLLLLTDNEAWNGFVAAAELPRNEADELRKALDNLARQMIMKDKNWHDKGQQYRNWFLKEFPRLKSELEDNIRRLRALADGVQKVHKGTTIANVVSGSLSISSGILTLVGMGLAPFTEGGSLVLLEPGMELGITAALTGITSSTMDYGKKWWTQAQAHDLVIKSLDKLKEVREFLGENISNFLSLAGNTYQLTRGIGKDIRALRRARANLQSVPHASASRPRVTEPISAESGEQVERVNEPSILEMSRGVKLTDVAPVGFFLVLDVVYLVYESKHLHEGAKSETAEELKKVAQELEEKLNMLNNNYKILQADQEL
# Test: MultiTox-Fluor Multiplex Cytotoxicity Assay in tet-inducible APOL1 T-REx-HEK293 cells (cell rescue, ratio of dead to live cells)
# Type: cell-based
# Details: tet-inducible transgenic APOL1 T-REx-HEK293 cell lines, 50 ng/mL tet, 24 hours; read-out: IP50 (i.e., IC50 for cell proliferation)
# In short: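 T-REx-HEK293 cells with tet-inducible APOL1 were treated with compound (10 μM top, 10-point 3-fold dilution, duplicate) plus 50 ng/mL tetracycline for 24 h at 37° C, in DMEM with 2% tet-free FBS. MultiTox-Fluor protease signals gave a dead/live ratio, normalized to no tet (100% viability) and tet alone (0%).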
row,SMILES,IC50 [nM]
1,"C[C@H]1C[C@@]2(CCN1Cc1cnn(C3CCS(=O)(=O)C3)c1)OCCc1c2sc(C(F)(F)F)c1CO (stereo partly drawn) [Compound 911, [(2′S, 7R)-1′-[[1-(1,1-dioxothiolan-3-yl)pyrazol-4-yl]methyl]-2′-methyl-2-(trifluoromethyl)spiro[4,5-dihydrothieno[2,3-c]pyran-7,4′-piperidine]-3-yl]methanol]",< 100
2,CCc1cc2c(s1)CCO[C@@]21CCN(Cc2cn(CCN(CCO)CCO)nn2)[C@@H](C)C1 [Compound 182],100 to 500
3,COc1cnc(CN2CC[C@]3(C[C@@H]2C)OCCc2c3sc(Cl)c2CO)cn1 [Compound 720],100 to 500
4,CCc1cc2c(s1)CCO[C@@]21CCN(Cc2cn(CC3COCCN3)nn2)[C@@H](C)C1 (stereo partly drawn) [Compound 95],< 100
5,CCc1cc2c(s1)CCO[C@@]21CCN(C[C@H]2C[C@@H](NC(=O)CC3CS(=O)(=O)C3)C2)[C@@H](C)C1 [Compound 352],< 100
6,CCc1cc2c(s1)CCO[C@@]21CCN(CCO)[C@@H](C)C1 [Compound 239],100 to 500
7,C[C@H]1C[C@@]2(CCN1Cc1cnc(NC(C)(C)CO)nc1)OC[C@](O)(C(F)F)c1cc(Cl)sc12 [Compound 830],< 100
8,CCc1cc2c(s1)CCOC21CCN(Cc2cnc(-c3ccccn3)s2)CC1 [Compound 1140],500 to 1000
9,CCc1cc2c(s1)CCO[C@@]21CCN(C[C@H]2C[C@@H](NC(=O)C(O)C(C)C)C2)[C@@H](C)C1 (stereo partly drawn) [Compound 319],< 100
10,CCc1cc2c(s1)CCO[C@@]21CCN(CC2CN(C(=O)CC3CCS(=O)(=O)C3)C2)[C@@H](C)C1 (stereo partly drawn) [Compound 465],< 100
11,CCc1cc2c(s1)CCO[C@@]21CCN(Cc2cn(CC(C)(C)C(C)(C)O)nn2)[C@@H](C)C1 [Compound 109],100 to 500
12,CCc1cc2c(s1)CCO[C@@]21CCN(Cc2cn(CCC#N)nn2)[C@@H](C)C1 [Compound 37],< 100
13,CCc1cc2c(s1)CCO[C@@]21CCN(Cc2cn(CCOC)nn2)[C@@H](C)C1 [Compound 129],100 to 500
14,"C[C@H]1C[C@@]2(CCN1Cc1cnn(CCS(C)(=O)=O)c1)OCC(O)c1cc(Cl)sc12 (single isomer, unassigned) [Compound 769]",< 100
15,CCc1cc2c(s1)CCOC21CCN(Cc2csc(C(F)(F)F)n2)CC1 [Compound 1147],500 to 1000
16,C[C@H]1C[C@@]2(CCN1Cc1cnn(CC(C)(O)C(F)F)c1)OCCc1c2sc(C(F)(F)F)c1CO (stereo partly drawn) [Compound 953],< 100
17,COc1ccc(CN2CC[C@]3(C[C@@H]2C)OCCc2cc(Cl)sc23)cc1OCC(N)=O [Compound 657],< 100
18,C[C@H]1C[C@@]2(CCN1Cc1cnn(CC3CCOCC3)c1)OCCc1cc(Cl)sc12 [Compound 706],< 100
19,CCc1cc2c(s1)CCO[C@@]21CCN(Cc2cn(C[C@H](O)C(C)(C)C)nn2)[C@@H](C)C1 [Compound 113],< 100
20,CCc1cc2c(s1)CCOC21CCN(Cc2cn(CCC(=O)NC)nn2)CC1 [Compound 1120],500 to 1000
21,CCc1cc2c(s1)CCO[C@@]21CCN(CC2CN(C(=O)CS(=O)(=O)CC)C2)[C@@H](C)C1 [Compound 459],< 100
22,CCc1cc2c(s1)CCO[C@@]21CCN(Cc2cn(C3CCN(S(C)(=O)=O)CC3)nn2)[C@@H](C)C1 [Compound 20],100 to 500
23,C[C@H]1C[C@@]2(CCN1Cc1cnn(C)c1)OC[C@](O)(C(F)F)c1cc(Cl)sc12 [Compound 831],< 100
24,C[C@H]1C[C@@]2(CCN1Cc1cnn(CC(O)CC(C)(C)O)c1)OCCc1c2sc(C(F)(F)F)c1CO (stereo partly drawn) [Compound 949],< 100

row,SMILES,IC50 [nM]
1,CCc1cc2c(s1)CCOC21CCN(Cc2cn(CC3(O)CCCC3)nn2)CC1 [Compound 1082],100 to 500
2,"C[C@H]1C[C@@]2(CCN1Cc1cnn(CCS(C)(=O)=O)c1)OCCc1cc(Cl)sc12 [Compound 697, (2′S, 7R)-2-chloro-2′-methyl-1′-[[1-(2-methylsulfonylethyl)pyrazol-4-yl]methyl]spiro[4,5-dihydrothieno[2,3-c]pyran-7,4′-piperidine]]",< 100
3,C[C@H]1C[C@@]2(CCN1Cc1ccc(F)cc1)OCCc1c2sc(Cl)c1CO [Compound 755],100 to 500
4,CCc1cc2c(s1)CCOC21CCN(Cc2ccc(C(=O)Nc3ccn(C)n3)nc2)CC1 [Compound 1051],< 100
5,C[C@H]1C[C@@]2(CCN1C[C@@H](O)CO)OCCc1cc(CC(F)F)sc12 [Compound 598],100 to 500
6,CCc1cc2c(s1)CCO[C@@]21CCN(C[C@H]2C[C@@H](NC(=O)CNS(=O)(=O)CC)C2)[C@@H](C)C1 [Compound 353],< 100
7,Cc1cc2c(s1)CCO[C@@]21CCN(C2CCCC2O)[C@@H](C)C1 (stereo partly drawn) [Compound 505],< 100
8,CCc1cc2c(s1)CCO[C@@]21CCN(CC2CN(C(=O)c3ccn(CO)n3)C2)[C@@H](C)C1 [Compound 475],< 100
9,C[C@H]1C[C@@]2(CCN1Cc1ccc(F)cc1)OCCc1cc(Cl)sc12 [Compound 672],100 to 500
10,CCc1cc2c(s1)CCOC21CCN(CC2CC2)CC1 [Compound 1155],500 to 1000
11,"C[C@H]1C[C@@]2(CCN1Cc1cn(CCS(C)(=O)=O)nn1)OCCc1sc(C(F)(F)F)cc12 [Compound 525, (2′S,4R)-2′-methyl-1′-[[1-(2-methylsulfonylethyl)triazol-4-yl]methyl]-2-(trifluoromethyl)spiro[6,7-dihydrothieno[3,2-c]pyran-4,4′-piperidine]]",< 100
12,CCc1cc2c(s1)CCOC21CCN(Cc2cn(C3CCN(C(C)=O)CC3)nn2)CC1 [Compound 1116],500 to 1000
13,C[C@H]1C[C@@]2(CCN1Cc1ccncc1F)OCCc1c2sc(Cl)c1CO [Compound 735],500 to 1000
14,CCc1cc2c(s1)CCOC21CCN(Cc2cn(CCCF)nn2)CC1 [Compound 1099],500 to 1000
15,Cc1cc2c(s1)[C@]1(CCN(Cc3cnn(CCS(C)(=O)=O)c3)[C@@H](C)C1)OCC2 [Compound 1026],< 100
16,Cc1sc2c(c1C)[C@]1(CCN(Cc3cn(CCS(C)(=O)=O)nn3)[C@@H](C)C1)OCC2 [Compound 512],100 to 500
17,CCc1cc2c(s1)CCO[C@@]21CCN(CC2(O)CCOCC2)[C@@H](C)C1 [Compound 235],100 to 500
18,CCc1cc2c(s1)CCO[C@@]21CCN(Cc2cnc(N[C@@H]3CCCC[C@H]3O)nc2)[C@@H](C)C1 [Compound 223],< 100
19,"CCc1cc2c(s1)CCO[C@@]21CCN(CC2CNC2)[C@@H](C)C1 [Compound 421, (2′S,4R)-1′-(azetidin-3-ylmethyl)-2-ethyl-2′-methyl-spiro[6,7-dihydrothieno[3,2-c]pyran-4,4′-piperidine]]",500 to 1000
20,C[C@H]1C[C@@]2(CCN1CC1CC1(F)F)OCCc1cc(CC(F)F)sc12 (stereo partly drawn) [Compound 617],< 100
21,C[C@H]1C[C@@]2(CCN1CCC(C)(C)O)OCCc1cc(CC(F)F)sc12 [Compound 620],100 to 500
22,"C[C@H]1C[C@@]2(CCN1Cc1cn[nH]c1)OCCc1cc(Cl)sc12 [Compound 698, (2′S, 7R)-2-chloro-2′-methyl-1′-(1H-pyrazol-4-ylmethyl)spiro[4,5-dihydrothieno[2,3-c]pyran-7,4′-piperidine]]",< 100
23,"C[C@H]1C[C@@]2(CCN1Cc1cnn(C)c1)OCC(O)c1cc(Cl)sc12 (single isomer, unassigned) [Compound 820]",< 100
24,CCc1cc2c(s1)CCOC21CCN(Cc2cn(CCc3csc(N)n3)nn2)CC1 [Compound 1093],500 to 1000
